Reference: US8580809B2, “Filamin A-binding anti-inflammatory analgesic” (Pain Therapeutics, Inc., priority 2009, dated 2013)

Legend:
primary human astrocytes = test: LPS-induced cytokine release from primary human astrocytes; assay type: cell-based; conditions: 2 hours prior to LPS and 24 hours
[1] = Mouse hot-water tail-flick test; assay type: in vivo; conditions: for mean maximum antinociception amount: 56 mg/kg
Protocol: The mouse “tail flick” test was used to assay the relative antinociceptive activity of compositions containing a compound to be assayed. This assay was substantially that disclosed by Xie et al., 2005 J. Neurosci 25:409-416.
The mouse hot-water tail-flick test was performed by placing the distal third of the tail in a water bath maintained at 52° C. The latency until tail withdrawal from the bath was determined and compared among the treatments. A 10 second cutoff was used to avoid tissue damage. Data are converted to percentage of antinociception by the following formula: (response latency−baseline latency)/(cutoff−baseline latency)×100 to generate dose-response curves. […] Relative potency was determined as a ratio of the A50 values.
To assess tolerance to the antinociceptive effect, the compound was administered twice daily for 7 days at an A90 dose (dose that results in a 90% antinociceptive effect in the 52° C. warm-water tail-flick test), and the tail-flick test was performed daily after the a.m. dose.

mu opiate receptor (MOR) = target: T1, mu opiate receptor (MOR) (Rattus norvegicus, UniProt P33535); test: MOR agonist activity using [35S]GTPγS binding assay in striatal membranes; assay type: biochemical; conditions: for MOR agonist activity, [35S]GTPγS binding to Gαo, FLNA-binding compound as agonist 0.1 μM: 0.1 μM compound; for MOR agonist activity, [35S]GTPγS binding to Gαo, FLNA-binding compound as agonist 0.1 μM / MOR agonist activity, [35S]GTPγS binding to Gαo, FLNA-binding compound as agonist 1 μM: striatal membranes; for MOR agonist activity, [35S]GTPγS binding to Gαo, 1 μM + BFNA: 1 μM compound + 1 μM β-funaltrexamine; for MOR agonist activity, [35S]GTPγS binding to Gαo, FLNA-binding compound as agonist 1 μM: 1 μM compound
T1 construct: from tissue; host or cells: rat striatal membrane preparation
T1 sequence (P33535 whole entry): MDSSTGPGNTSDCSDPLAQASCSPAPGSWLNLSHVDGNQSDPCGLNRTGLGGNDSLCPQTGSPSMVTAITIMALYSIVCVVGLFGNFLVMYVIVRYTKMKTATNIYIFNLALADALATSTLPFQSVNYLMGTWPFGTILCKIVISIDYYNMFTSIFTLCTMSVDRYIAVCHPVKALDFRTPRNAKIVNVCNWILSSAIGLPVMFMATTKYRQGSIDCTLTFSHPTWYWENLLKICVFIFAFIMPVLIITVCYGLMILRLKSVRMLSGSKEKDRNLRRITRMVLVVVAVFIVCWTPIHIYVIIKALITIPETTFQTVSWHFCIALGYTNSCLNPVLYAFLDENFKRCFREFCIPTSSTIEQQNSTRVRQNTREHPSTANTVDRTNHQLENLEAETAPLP
Protocol: To assess the mu opiate receptor (MOR) agonist activity of positive compounds from the FLNA screening, compounds were tested in a [^35S]GTPγS binding assay using striatal membranes.
Striatal tissue was homogenized in 10 volumes of ice cold 25 mM HEPES buffer, pH 7.4, which contained 1 mM EGTA, 100 mM sucrose, 50 μg/ml leupeptin, 0.04 mM PMSF, 2 μg/ml soybean trypsin inhibitor and 0.2% 2-mercaptoethanol. The homogenates were centrifuged at 800×g for 5 minutes and the supernatants were centrifuged at 49,000×g for 20 minutes.
The resultant striatal membrane preparation (200 μg) was admixed and maintained (incubated) at 30° C. for 5 minutes in reaction buffer as above that additionally contained 1 mM MgCl2 and 0.5 nM [^35S]GTPγS (0.1 μCi/assay, PerkinElmer Life and Analytical Sciences) in a total volume of 250 μl and continued for 5 minutes in the absence or presence of 0.1-10 μM of an assayed compound of interest. The reaction was terminated by dilution with 750 μl of ice-cold reaction buffer that contained 20 mM MgCl2 and 1 mM EGTA and immediate centrifugation at 16,000×g for 5 minutes.
The resulting pellet was solubilized by sonicating for 10 seconds in 0.5 ml of immunoprecipitation buffer containing 0.5% digitonin, 0.2% sodium cholate and 0.5% NP-40. Normal rabbit serum (1 μl) was added to 1 ml of lysate and incubated at 25° C. for 30 minutes. Nonspecific immune complexes were removed by incubation with 25 μl of protein A/G-conjugated agarose beads at 25° C. for 30 minutes followed by centrifugation at 5,000×g at 4° C. for 5 minutes. The supernatant was divided and separately incubated at 25° C. for 30 minutes with antibodies raised against Gαo proteins (1:1,000 dilutions).
The immunocomplexes so formed were collected by incubation at 25° C. for 30 minutes with 40 μl of agarose-conjugated protein A/G beads and centrifugation at 5,000×g at 4° C. for 5 minutes. The pellet was washed and suspended in buffer containing 50 mM Tris-HCl, pH 8.0, and 1% NP-40. The radioactivity in the suspension was determined by liquid scintillation spectrometry. […] DAMGO (H-Tyr-D-Ala-Gly-N-MePhe-Gly-OH; 1 or 10 μM) was used as a positive control.

MOR = MOR (Rattus norvegicus, UniProt P33535); test: Relative Gs/Go switching: MOR-G protein coupling in organotypic striatal slice cultures; conditions: for Go (MOR level in anti-Gαo immunoprecipitates), average / Gs/Go-Coupled Ratio, average / Gs/olf (MOR level in anti-Gαs/olf immunoprecipitates), average: striatal slice culture
Chain of MOR (P33535 whole entry): as above
Protocol: The threshold for significance was p<0.05.
Striatal slices (200 μM thickness) were prepared using a McIlwain tissue chopper (Mickle Laboratory Engineering Co., Surrey, UK).

[2] = target: FLNA VAKGL pentapeptide (Bn-VAKGL) (Homo sapiens, UniProt P21333); test: FITC-NLX-based FLNA screening assay (FLNA peptide binding assay)
Protocol: Streptavidin-coated 96-well plates (Reacti-Bind™ NeutrAvidin™ High binding capacity coated 96-well plate, Pierce-ENDOGEN) are washed three times with 200 μl of 50 mM Tris HCl, pH 7.4 according to the manufacturer's recommendation.
Bn-VAKGL peptide (0.5 mg/plate) is dissolved in 50 μl DMSO and then added to 4450 μl of 50 mM Tris HCl, pH 7.4, containing 100 mM NaCl and protease inhibitors (binding medium) as well as 500 μl superblock in PBS (Pierce-ENDOGEN) [final concentration for DMSO: 1%].
The washed streptavidin-coated plates are contacted with 5 μg/well of Bn-VAKGL (100 μl) for 1 hour (incubated) with constant shaking at 25° C. [50 μl of Bn-VAKGL peptide solution from B+50 μl binding medium, final concentration for DMSO: 0.5%]. At the end of the incubation, the plate is washed three times with 200 μl of ice-cold 50 mM Tris HCl, pH 7.4.
The final assay volume is 100 μl. At the end of incubation, the plate is washed twice with 100 μl of ice-cold 50 mM Tris, pH 7.4. The signal, bound-FITC-NLX is detected using a DTX-880 multi-mode plate reader (Beckman).
To screen the medicinal chemistry analogs (new compounds), each compound solution (1 μl) is added to the Bn-VAKGL coated streptavidin plate with 50 μl/well of binding medium followed immediately with addition of 50 μl of FITC-NLX (total assay volume/well is 100 μl). The final screening concentration for each compound is 10 μM. […]

filamin A = filamin A (Homo sapiens, UniProt P21333); conditions: read-out: affinity of binding to filamin A; cited from earlier work
Chain of filamin A (P21333 whole entry): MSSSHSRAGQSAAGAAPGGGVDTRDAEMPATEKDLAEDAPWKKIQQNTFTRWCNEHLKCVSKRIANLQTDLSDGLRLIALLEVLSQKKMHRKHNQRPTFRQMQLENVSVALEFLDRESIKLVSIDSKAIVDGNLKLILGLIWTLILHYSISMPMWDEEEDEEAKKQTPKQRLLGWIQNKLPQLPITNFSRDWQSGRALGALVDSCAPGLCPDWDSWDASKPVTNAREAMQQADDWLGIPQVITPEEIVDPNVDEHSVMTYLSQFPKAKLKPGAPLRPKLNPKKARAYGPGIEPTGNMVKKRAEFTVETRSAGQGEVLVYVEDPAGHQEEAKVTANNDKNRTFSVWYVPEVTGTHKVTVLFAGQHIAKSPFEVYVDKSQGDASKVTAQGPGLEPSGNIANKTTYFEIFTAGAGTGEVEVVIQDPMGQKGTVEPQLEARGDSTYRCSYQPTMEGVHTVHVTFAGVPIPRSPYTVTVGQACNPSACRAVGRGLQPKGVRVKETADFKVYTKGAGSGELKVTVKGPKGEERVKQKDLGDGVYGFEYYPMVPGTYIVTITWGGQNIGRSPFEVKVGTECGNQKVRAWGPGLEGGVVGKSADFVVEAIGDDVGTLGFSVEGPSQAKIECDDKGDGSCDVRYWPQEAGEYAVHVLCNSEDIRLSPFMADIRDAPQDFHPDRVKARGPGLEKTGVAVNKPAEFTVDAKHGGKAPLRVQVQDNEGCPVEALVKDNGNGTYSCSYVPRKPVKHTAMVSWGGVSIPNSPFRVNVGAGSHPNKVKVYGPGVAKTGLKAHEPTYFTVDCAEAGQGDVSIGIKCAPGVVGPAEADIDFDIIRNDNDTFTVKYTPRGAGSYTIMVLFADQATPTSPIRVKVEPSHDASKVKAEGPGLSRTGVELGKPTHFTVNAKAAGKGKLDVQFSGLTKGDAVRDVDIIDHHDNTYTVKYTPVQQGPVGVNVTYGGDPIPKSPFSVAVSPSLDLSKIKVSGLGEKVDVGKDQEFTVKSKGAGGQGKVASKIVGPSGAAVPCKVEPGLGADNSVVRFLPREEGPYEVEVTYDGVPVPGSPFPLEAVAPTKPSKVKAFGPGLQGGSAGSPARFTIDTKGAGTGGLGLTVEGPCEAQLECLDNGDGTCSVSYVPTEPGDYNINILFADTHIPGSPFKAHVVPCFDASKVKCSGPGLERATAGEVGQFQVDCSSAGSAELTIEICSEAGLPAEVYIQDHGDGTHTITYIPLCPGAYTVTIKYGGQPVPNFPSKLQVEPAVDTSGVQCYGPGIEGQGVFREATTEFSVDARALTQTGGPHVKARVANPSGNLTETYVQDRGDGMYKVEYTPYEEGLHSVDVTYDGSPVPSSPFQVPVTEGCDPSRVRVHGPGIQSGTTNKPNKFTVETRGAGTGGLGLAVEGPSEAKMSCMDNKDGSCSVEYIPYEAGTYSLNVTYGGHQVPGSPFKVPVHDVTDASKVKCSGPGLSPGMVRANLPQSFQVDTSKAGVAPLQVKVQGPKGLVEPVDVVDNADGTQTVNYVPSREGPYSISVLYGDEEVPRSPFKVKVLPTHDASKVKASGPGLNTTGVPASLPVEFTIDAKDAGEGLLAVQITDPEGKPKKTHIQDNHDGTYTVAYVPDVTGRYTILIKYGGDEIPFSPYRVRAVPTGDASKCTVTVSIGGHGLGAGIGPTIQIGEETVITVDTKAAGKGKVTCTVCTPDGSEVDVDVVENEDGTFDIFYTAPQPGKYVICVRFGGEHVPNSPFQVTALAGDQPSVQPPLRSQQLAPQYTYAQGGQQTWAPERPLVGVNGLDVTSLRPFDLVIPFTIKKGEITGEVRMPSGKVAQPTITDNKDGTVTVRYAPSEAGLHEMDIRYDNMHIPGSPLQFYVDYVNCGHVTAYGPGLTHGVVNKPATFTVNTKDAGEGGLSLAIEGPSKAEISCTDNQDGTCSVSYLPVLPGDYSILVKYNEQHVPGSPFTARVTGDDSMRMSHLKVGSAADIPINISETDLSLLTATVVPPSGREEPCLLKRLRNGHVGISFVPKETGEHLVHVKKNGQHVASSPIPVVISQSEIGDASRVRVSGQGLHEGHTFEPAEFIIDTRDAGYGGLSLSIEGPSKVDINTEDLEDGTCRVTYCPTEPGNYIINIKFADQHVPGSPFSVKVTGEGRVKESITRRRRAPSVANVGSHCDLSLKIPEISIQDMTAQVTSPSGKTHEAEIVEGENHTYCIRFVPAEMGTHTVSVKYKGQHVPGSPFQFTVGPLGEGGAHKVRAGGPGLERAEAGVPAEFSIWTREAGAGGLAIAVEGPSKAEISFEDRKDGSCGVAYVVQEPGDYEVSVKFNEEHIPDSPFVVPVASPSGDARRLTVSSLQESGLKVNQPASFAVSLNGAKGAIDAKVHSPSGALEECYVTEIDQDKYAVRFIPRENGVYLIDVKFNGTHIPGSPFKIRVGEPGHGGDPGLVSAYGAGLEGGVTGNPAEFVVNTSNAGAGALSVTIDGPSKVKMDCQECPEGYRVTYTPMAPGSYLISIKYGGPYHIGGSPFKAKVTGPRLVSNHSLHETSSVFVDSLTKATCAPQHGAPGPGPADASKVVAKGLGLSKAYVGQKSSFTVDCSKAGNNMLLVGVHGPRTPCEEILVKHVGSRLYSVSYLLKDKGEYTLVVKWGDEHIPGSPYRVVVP

For `C=CCN1CC[C@]23c4c5ccc(O)c4O[C@H]2C(=O)CC[C@]3(O)[C@H]1C5` [(+)Naloxone, (+)naloxone, reference compound], the “IL-1β Average % (±SEM)” value (primary human astrocytes; 10 pM) was 75.9 (4.5) %, the “IL-6 Average % (±SEM)” value (primary human astrocytes; 10 pM) was 56.9 (4.4) % and the “TNF-α Average % (±SEM)” value (primary human astrocytes; 10 pM) was 58.6 (2.0) %. The “IL-1β Average % (±SEM)” value (primary human astrocytes; 1 nM) was 10.5 (4.8) %, the “IL-6 Average % (±SEM)” value (primary human astrocytes; 1 nM) was 6.8 (4.3) % and the “TNF-α Average % (±SEM)” value (primary human astrocytes; 1 nM) was 9.2 (6.0) %.

With `CS(=O)(=O)c1ccc(S(=O)(=O)N2CCC3(CC2)OCCN3S(=O)(=O)c2ccc(S(C)(=O)=O)cc2)cc1` [Compound C0009] the “mean maximum antinociception amount” value ([1]; oral, at about 10 minutes) was “about 50%”, the “MOR agonist activity, [35S]GTPγS binding to Gαo, FLNA-binding compound as agonist 0.1 μM” value (from here on “MOR agonist activity … as agonist 0.1 μM”) (mu opiate receptor (MOR)) was 146.3% and the “MOR agonist activity, [35S]GTPγS binding to Gαo, 1 μM + BFNA” value (from here on “MOR agonist activity … 1 μM + BFNA”) (mu opiate receptor (MOR)) was 26.4%. The “MOR agonist activity, [35S]GTPγS binding to Gαo, FLNA-binding compound as agonist 1 μM” value (from here on “MOR agonist activity … as agonist 1 μM”) (mu opiate receptor (MOR)) was 256.2%.

For `CC(=O)c1ccc(S(=O)(=O)N2CCC3(CC2)OCCN3S(=O)(=O)c2ccc(C(C)=O)cc2)cc1` [Compound C0011], the “Go (MOR level in anti-Gαo immunoprecipitates), average” value (MOR; 10 μM) was 1603.3, the “Gs/Go-Coupled Ratio, average” value (MOR; 10 μM) was 0.332 and the “Gs/olf (MOR level in anti-Gαs/olf immunoprecipitates), average” value (MOR; 10 μM) was 534.3. For the same molecule, the “Go (MOR level in anti-Gαo immunoprecipitates), average” value (MOR; 100 μM) was 1598.8, the “Gs/Go-Coupled Ratio, average” value (MOR; 100 μM) was 0.420 and the “Gs/olf (MOR level in anti-Gαs/olf immunoprecipitates), average” value (MOR; 100 μM) was 658.2. The “mean maximum antinociception amount” value ([1]; oral, at about 10-20 minutes) was “about 70%”, the “MOR agonist activity … as agonist 0.1 μM” value (mu opiate receptor (MOR)) was 217.0% and the “MOR agonist activity … 1 μM + BFNA” value (mu opiate receptor (MOR)) was 19.0%. The “MOR agonist activity … as agonist 1 μM” value (mu opiate receptor (MOR)) was 305.0%.

With `O=C(c1ccc([N+](=O)[O-])cc1)N1CCC2(CC1)OCCN2S(=O)(=O)c1ccc([N+](=O)[O-])cc1` [Compound C0033] the inhibition at 0.1 µM ([2]; read-out: Percent inhibition of FITC-NLX binding, 0.1 μM) was 48.4%, the inhibition at 1 µM ([2]; read-out: Percent inhibition of FITC-NLX binding, 1 μM) was 51.3% and the “MOR agonist activity … as agonist 0.1 μM” value (mu opiate receptor (MOR)) was 134.5%. The “MOR agonist activity … 1 μM + BFNA” value (mu opiate receptor (MOR)) was 76.6% and the “MOR agonist activity … as agonist 1 μM” value (mu opiate receptor (MOR)) was 186.4%.

In the case of `COc1ccc(S(=O)(=O)N2CCOC23CCN(S(=O)(=O)c2ccc(C(C)=O)cc2)CC3)cc1` [Compound C0047], the “mean maximum antinociception amount” value ([1]; at about 20-30 minutes) is reported as “about 35%”, the “MOR agonist activity … as agonist 0.1 μM” value (mu opiate receptor (MOR)) is reported as 142.2% and the “MOR agonist activity … 1 μM + BFNA” value (mu opiate receptor (MOR)) is reported as 80.1%. For the same molecule, the “MOR agonist activity … as agonist 1 μM” value (mu opiate receptor (MOR)) was 206.1%.

For `CC(=O)c1ccc(C(=O)N2CCC3(CC2)OCCN3S(=O)(=O)c2ccc(C(C)=O)cc2)cc1` [Compound C0052], the “mean maximum antinociception amount” value ([1]; oral, at about 20 minutes) was “about 30%”, the “MOR agonist activity … as agonist 0.1 μM” value (mu opiate receptor (MOR)) was 108.4% and the “MOR agonist activity … 1 μM + BFNA” value (mu opiate receptor (MOR)) was 42.7%. The “MOR agonist activity … as agonist 1 μM” value (mu opiate receptor (MOR)) was 162.8%.

In the case of `O=C1CN(Cc2ccccc2)C2(CCN(S(=O)(=O)c3cc(Cl)c(O)c(Cl)c3)CC2)N1` [Compound C0139M], the “IL-1β Average % (±SEM)” value (primary human astrocytes; 10 pM) is reported as 83.4 (3.0) %, the “IL-6 Average % (±SEM)” value (primary human astrocytes; 10 pM) is reported as 76.6 (3.1) % and the “TNF-α Average % (±SEM)” value (primary human astrocytes; 10 pM) is reported as 77.0 (3.2) %. The “IL-1β Average % (±SEM)” value (primary human astrocytes; 1 nM) was 78.2 (0.7) %, the “IL-6 Average % (±SEM)” value (primary human astrocytes; 1 nM) was 80.1 (7.0) % and the “TNF-α Average % (±SEM)” value (primary human astrocytes; 1 nM) was 77.5 (1.8) %. For the same molecule, the “IL-1β Average % (±SEM)” value (primary human astrocytes; 100 nM) was 70.5 (1.6) %, the “IL-6 Average % (±SEM)” value (primary human astrocytes; 100 nM) was 80.2 (6.3) % and the “TNF-α Average % (±SEM)” value (primary human astrocytes; 100 nM) was 72.7 (2.5) %. The “IL-1β Average % (±SEM)” value (primary human astrocytes; 100 fM) was 84.5 (2.6) %, the “IL-6 Average % (±SEM)” value (primary human astrocytes; 100 fM) was 82.6 (1.6) % and the “TNF-α Average % (±SEM)” value (primary human astrocytes; 100 fM) was 74.8 (4.3) %. The “MOR agonist activity … as agonist 0.1 μM” value (mu opiate receptor (MOR)) was 156.1%, the “MOR agonist activity … 1 μM + BFNA” value (mu opiate receptor (MOR)) was 51.0% and the “MOR agonist activity … as agonist 1 μM” value (mu opiate receptor (MOR)) was 206.6%.

In the case of `O=C1CC[C@@]2(O)[C@H]3Cc4ccc(O)c5c4[C@@]2(CCN3CC2CC2)[C@H]1O5` [NTX, naltrexone], the Kd (filamin A) is listed as roughly 4 pM.

In the case of `C=CCN1CC[C@]23c4c5ccc(O)c4O[C@H]2C(=O)CC[C@@]3(O)[C@H]1C5` [Naloxone, naloxone], the Kd (filamin A) is listed as roughly 4 pM.

For `COc1ccc2c3c1O[C@H]1C(=O)CC[C@@]4(O)[C@@H](C2)N(C)CC[C@]314` [Oxycodone, oxycodone, reference compound], the “Go (MOR level in anti-Gαo immunoprecipitates), average” value (MOR; 10 μM) was 900.4 and the “switch of μ opioid receptor G protein coupling from Go to Gs” value (MOR; 7 days of twice daily 1-hour exposures, organotypic striatal slice cultures) was “switch from Go to Gs coupling”.

With `CN1CC[C@]23c4c5ccc(O)c4O[C@H]2[C@@H](O)C=C[C@H]3[C@H]1C5` [morphine, reference compound] the “A50 value (95% confidence interval)” value ([1]; orally administered, mouse, 52° C. tail flick) was 61.8 (52.4−72.9) mg/kg.
